Measured values published in patent publication US20090270350A1, “Pyridinone Pyrazole Urea and Pyrimidinone Pyrazole Urea Derivatives” (PFIZER INC., priority 2006, published 2009).
pIC50: −log10 of the molar value.

Biological target: p38α (Homo sapiens, UniProt Q16539)
Experiment: p38α/MK2 cascade assay
Format: biochemical
Details: Table 1; inhibitors preincubated with p38α for 40 minutes; phosphorylation of Hsp27 peptide by MK-2, Caliper LabChip 3000; read-out: p38a/MK2 Cascade 40 min Pre-Incuabtion (% Inhibition): IC50
Protocol: The ability of compounds to inhibit activated p38α was determined in a p38α/MK-2 cascade assay format. The kinase activity of p38α is determined by its ability to phosphorylate/activate nonactive MK2 (54-400). Activation of MK-2 by p38α is measured by following the phosphorylation of a MK-2 specific peptide, Hsp27 peptide (FITC-KKKALSRQLSVAA). The phosphorylation of the Hsp27 peptide was quantified using the Caliper LabChip 3000. The kinase reactions were carried out in 20 mM HEPES pH 7.5, 10 mM MgCl2, 0.0005% Tween-20, 0.01% BSA, 1 mM DTT, and 2% DMSO. The inhibitors were varied between 1000-0.05 nM, while the Hsp27 peptide substrate, MgATP, and nonactive MK-2 (54-400) were held constant at 0.5 µM, 5 µM, and 1 nM, respectively. Inhibitors were preincubated with p38α for 40 minutes prior to initiating the reaction with peptide, MgATP, and MK-2. The kinase reactions were quenched after 60 minutes by the addition of stop buffer (180 mM HEPES, 30 mM EDTA, and 0.2% Coating Reagent-3).
The above protocol assay was used to determine the IC50 values for some of the compounds in the above Examples.
IC50 values were determined for the compounds listed in Table 2, using the same p38α/MK2 cascade assay used to determine the IC50 values for the compounds in Table 1. The compounds of Table 2 were prepared using methods similar to those listed in the Examples for compounds of Table 1.

Sequence of p38α (Q16539 whole entry): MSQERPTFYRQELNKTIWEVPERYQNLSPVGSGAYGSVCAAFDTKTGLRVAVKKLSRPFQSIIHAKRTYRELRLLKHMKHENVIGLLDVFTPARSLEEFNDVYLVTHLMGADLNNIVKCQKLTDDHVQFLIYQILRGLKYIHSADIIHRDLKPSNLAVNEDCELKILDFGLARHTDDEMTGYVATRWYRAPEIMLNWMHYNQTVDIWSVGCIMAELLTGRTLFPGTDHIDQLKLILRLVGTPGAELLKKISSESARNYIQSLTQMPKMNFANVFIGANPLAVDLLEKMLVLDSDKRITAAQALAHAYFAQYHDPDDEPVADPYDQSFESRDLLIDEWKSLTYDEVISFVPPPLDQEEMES

| SMILES | pIC50 |
| --- | --- |
| COc1cccc(Cn2c(C)cc(OCc3ccc(F)cc3CNC(=O)Nc3cc(C(C)(C)C)nn3-c3cccc(OCCOC4CCCCO4)c3)cc2=O)c1 (centres unmarked) [Example 34, 1-(3-tert-butyl-1-{3-[2-(tetrahydro-2H-pyran-2-yloxy)ethoxy]phenyl}-1H-pyrazol-5-yl)-3-[5-fluoro-2-({[1-(3-methoxybenzyl)-6-methyl-2-oxo-1,2-dihydropyridin-4-yl]oxy}methyl)benzyl]urea] | 6.58 |
| COc1cccc(Cn2c(C)cc(OCc3ccc(F)cc3CNC(=O)Nc3cc(C(C)(C)C)nn3-c3cccc(OC)c3)cc2=O)c1 [Example 35, 1-[3-tert-butyl-1-(3-methoxyphenyl)-1H-pyrazol-5-yl]-3-[5-fluoro-2-({[1-(3-methoxybenzyl)-6-methyl-2-oxo-1,2-dihydropyridin-4-yl]oxy}methyl)benzyl]urea] | 7.37 |
| COc1cccc(Cn2c(C)cc(OCc3ccccc3CNC(=O)Nc3cc(C(C)(C)C)nn3-c3cccc(OCCOC4CCCCO4)c3)cc2=O)c1 (centres unmarked) [Example 36, 1-(3-tert-butyl-1-{3-[2-(tetrahydro-2H-pyran-2-yloxy)ethoxy]phenyl}-1H-pyrazol-5-yl)-3-[2-({[1-(3-methoxybenzyl)-6-methyl-2-oxo-1,2-dihydropyridin-4-yl]oxy}methyl)benzyl]urea] | 6.85 |
| COc1cccc(Cn2c(C)cc(OCc3ccc(F)cc3CNC(=O)Nc3cc(C(C)(C)C)nn3-c3cccc(OCCO)c3)cc2=O)c1 [Example 37, 1-{3-tert-butyl-1-[3-(2-hydroxyethoxy)phenyl]-1H-pyrazol-5-yl}-3-[5-fluoro-2-({[1-(3-methoxybenzyl)-6-methyl-2-oxo-1,2-dihydropyridin-4-yl]oxy}methyl)benzyl]urea] | 7.53 |
| COc1cccc(Cn2c(C)cc(OCc3ccccc3CNC(=O)Nc3cc(C(C)(C)C)nn3-c3cccc(OCCO)c3)cc2=O)c1 [Example 38, 1-{3-tert-butyl-1-[3-(2-hydroxyethoxy)phenyl]-1H-pyrazol-5-yl}-3-[2-({[1-(3-methoxybenzyl)-6-methyl-2-oxo-1,2-dihydropyridin-4-yl]oxy}methyl)benzyl]urea] | 7.51 |
| COc1cccc(Cn2c(C)cc(OCc3ccc(F)cc3CNC(=O)Nc3cc(C(C)(C)C)nn3-c3cccc(OCCO)c3)c(Cl)c2=O)c1 [Example 39, 1-{3-tert-butyl-1-[3-(2-hydroxyethoxy)phenyl]-1-pyrazol-5-yl}-3-[2-({[3-chloro-1-(3-methoxybenzyl)-6-methyl-2-oxo-1,2-dihydropyridin-4-yl]oxy}methyl)-5-fluorobenzyl]urea] | 8.14 |
| COc1cccc(Cn2c(C)cc(OCc3ccc(F)cc3CNC(=O)Nc3cc(C(C)(C)C)nn3-c3cccc(OCCOC4CCCCO4)c3)c(Cl)c2=O)c1 (centres unmarked) [Example 41, 1-(3-tert-butyl-1-{3-[2-(tetrahydro-2H-pyran-2-yloxy)ethoxy]phenyl}-1H-pyrazol-5-yl)-3-[2-({[3-chloro-1-(3-methoxybenzyl)-6-methyl-2-oxo-1,2-dihydropyridin-4-yl]oxy}methyl)-5-fluorobenzyl]urea] | 7.67 |
| COc1cccc(Cn2c(C)cc(OCc3ccc(F)cc3CNC(=O)Nc3cc(C(C)(C)C)nn3-c3ccc(O[Si](C)(C)C(C)(C)C)c(Cl)c3)c(Cl)c2=O)c1 [Example 42, 1-[3-tert-butyl-1-(4-{[tert-butyl(dimethyl)silyl]oxy}-3-chlorophenyl)-1H-pyrazol-5-yl]-3-[2-({[3-chloro-1-(3-methoxybenzyl)-6-methyl-2-oxo-1,2-dihydropyridin-4-yl]oxy}methyl)-5-fluorobenzyl]urea] | 6.94 |
| COc1cccc(Cn2c(C)cc(OCc3ccc(F)cc3CNC(=O)Nc3cc(C(C)(C)C)nn3-c3ccc(Cl)c(O[Si](C)(C)C(C)(C)C)c3)c(Cl)c2=O)c1 [Example 43, 1-[3-tert-butyl-1-(3-{[tert-butyl(dimethyl)silyl]oxy}-4-chlorophenyl)-1H-pyrazol-5-yl]-3-[2-({[3-chloro-1-(3-methoxybenzyl)-6-methyl-2-oxo-1,2-dihydropyridin-4-yl]oxy}methyl)-5-fluorobenzyl]urea] | 7.37 |
| COc1cccc(Cn2c(C)cc(OCc3ccccc3CNC(=O)Nc3cc(C(C)(C)C)nn3-c3cccc(OC)c3)c(Cl)c2=O)c1 [Example 44, 1-[3-tert-butyl-1-(3-methoxyphenyl)-1H-pyrazol-5-yl]-3-[2-({[3-chloro-1-(3-methoxybenzyl)-6-methyl-2-oxo-1,2-dihydropyridin-4-yl]oxy}methyl)benzyl]urea] | 8.24 |
| COc1cccc(Cn2c(C)cc(OCc3ccc(F)cc3CNC(=O)Nc3cc(C(C)(C)C)nn3-c3ccc(Cl)c(O)c3)c(Cl)c2=O)c1 [Example 45, 1-[3-tert-butyl-(4-chloro-3-hydroxyphenyl)-1H-pyrazol-5-yl]-3-[2-({[3-chloro-1-(3-methoxybenzyl)-6-methyl-2-oxo-1,2-dihydropyridin-4-yl]oxy}methyl)-5-fluorobenzyl]urea] | 8.21 |
| COc1cccc(Cn2c(C)cc(OCc3ccc(F)cc3CNC(=O)Nc3cc(C(C)(C)C)nn3-c3ccc(O)c(Cl)c3)c(Cl)c2=O)c1 [Example 46, 1-[3-tert-butyl-1-(3-chloro-4-hydroxyphenyl)-1H-pyrazol-5-yl]-3-[2-({[3-chloro-1-(3-methoxybenzyl)-6-methyl-2-oxo-1,2-dihydropyridin-4-yl]oxy}methyl)-5-fluorobenzyl]urea] | 8.40 |
| COc1cccc(Cn2c(C)cc(OCc3ccccc3CNC(=O)Nc3cc(C(C)(C)C)nn3-c3ccc(Cl)c(O)c3)c(C)c2=O)c1 [Example 47, 1-[3-tert-butyl-1-(4-chloro-3-hydroxyphenyl)-1H-pyrazol-5-yl]-3-[2-({[1-(3-methoxybenzyl)-3,6-dimethyl-2-oxo-1,2-dihydropyridin-4-yl]oxy}methyl)benzyl]urea] | 7.91 |
| COc1cccc(Cn2c(C)cc(OCc3ccccc3CNC(=O)Nc3cc(C(C)(C)C)nn3-c3cccc(OCCO)c3)c(C)c2=O)c1 [Example 48, 1-{3-tert-butyl-1-[3-(2-hydroxyethoxy)phenyl]-1H-pyrazol-5-yl}-3-[2-({[1-(3-methoxybenzyl)-3,6-dimethyl-2-oxo-1,2-dihydropyridin-4-yl]oxy}methyl)benzyl]urea] | 8.19 |
| COc1cccc(Cn2c(C)cc(OCc3ccc(F)cc3CNC(=O)Nc3cc(C(C)(C)C)nn3-c3cccc(O)c3)c(Cl)c2=O)c1 [Example 50, 1-[3-tert-butyl-1-(3-hydroxyphenyl)-1H-pyrazol-5-yl]-3-[2-({[3-chloro-1-(3-methoxybenzyl)-6-methyl-2-oxo-1,2-dihydropyridin-4-yl]oxy}methyl)-5-fluorobenzyl]urea] | 8.19 |
| COc1cccc(Cn2c(C)cc(OCc3ccccc3CNC(=O)Nc3cc(C(C)(C)C)nn3-c3ccc(O)cc3)c(Cl)c2=O)c1 [Example 51, 1-[3-tert-butyl-1-(4-hydroxyphenyl)-1H-pyrazol-5-yl]-3-[2-({[3-chloro-1-(3-methoxybenzyl)-6-methyl-2-oxo-1,2-dihydropyridin-4-yl]oxy}methyl)benzyl]urea] | 8.24 |
| COc1cccc(Cn2c(C)cc(OCc3ccccc3CNC(=O)Nc3cc(C(C)(C)C)nn3-c3cccc(O)c3)c(Cl)c2=O)c1 [Example 52, 1-[3-tert-butyl-1-(3-hydroxyphenyl)-1H-pyrazol-5-yl]-3-[2-({[3-chloro-1-(3-methoxybenzyl)-6-methyl-2-oxo-1,2-dihydropyridin-4-yl]oxy}methyl)benzyl]urea] | 8.21 |
